The target of this assay is T1, Recombinant human GR (Homo sapiens, UniProt P04150).
T1 construct: purchased Invitrogen P2816
T1 sequence (P04150 1-777): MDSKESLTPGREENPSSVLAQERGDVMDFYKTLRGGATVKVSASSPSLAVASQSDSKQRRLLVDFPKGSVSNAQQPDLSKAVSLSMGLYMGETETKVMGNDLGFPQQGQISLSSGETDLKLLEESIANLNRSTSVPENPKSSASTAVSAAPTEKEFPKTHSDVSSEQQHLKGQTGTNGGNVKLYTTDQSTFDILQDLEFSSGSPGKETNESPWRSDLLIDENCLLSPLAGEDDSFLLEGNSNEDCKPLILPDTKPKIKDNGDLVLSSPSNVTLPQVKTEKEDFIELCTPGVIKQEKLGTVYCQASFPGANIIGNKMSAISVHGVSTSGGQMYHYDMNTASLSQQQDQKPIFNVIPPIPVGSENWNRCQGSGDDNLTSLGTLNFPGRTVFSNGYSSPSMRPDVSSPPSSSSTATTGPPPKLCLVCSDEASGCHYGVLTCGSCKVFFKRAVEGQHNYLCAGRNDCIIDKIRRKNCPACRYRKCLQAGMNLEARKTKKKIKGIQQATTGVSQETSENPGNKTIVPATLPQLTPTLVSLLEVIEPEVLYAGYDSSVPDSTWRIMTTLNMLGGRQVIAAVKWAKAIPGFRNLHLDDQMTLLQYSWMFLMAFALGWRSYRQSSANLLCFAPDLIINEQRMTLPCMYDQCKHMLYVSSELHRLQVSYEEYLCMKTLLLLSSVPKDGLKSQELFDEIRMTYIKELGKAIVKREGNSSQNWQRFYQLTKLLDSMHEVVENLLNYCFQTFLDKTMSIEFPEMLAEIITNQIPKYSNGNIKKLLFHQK
The assay can be described thus: Evaluation test for binding activity to glucocorticoid receptor: receptor competitor assay by fluorescence polarization (Invitrogen GR competitor assay kit, cat No. P2816). As to conditions: 20 μM test compound solution, 10 μL per well plus 5 μL 4×GS1 and 5 μL 4×GR solution; room temperature 2 to 4 hours; a ratio of 100% or more is indicated by 100%. The method, then: A detailed explanation of this matter will be described in the section of “Pharmacological Test” in Examples described below. In order to find the usefulness of the present compound as a pharmaceutical, a glucocorticoid receptor competitor assay was carried out by a fluorescence polarization method by using a glucocorticoid receptor competitor assay kit (manufactured by Invitrogen, cat No. P2816) to study the glucocorticoid receptor binding activity of the present compound.
1. Evaluation Test for Binding Activity to Glucocorticoid Receptor (hereinafter referred to as “GR”)
In order to evaluate a binding activity to GR, a receptor competitor assay was carried out by a fluorescence polarization method. In the assay, a GR competitor assay kit (manufactured by Invitrogen, cat No. P2816) was used, and a procedure was carried out according to the protocol attached to the kit. Hereinafter, the specific method will be described.
(Preparation of Reagents)
GR screening buffer: A buffer containing 10 mM potassium phosphate (pH 7.4), 20 mM sodium molybdate (Na2MoO4), 0.1 mM ethylene diamine tetraacetic acid (EDTA), 5 mM dithiothreitol (DTT), 0.1 mM stabilizing peptide and 2% dimethylsulfoxide was prepared.
4×GS1 solution: Fluormone™ GS1, which is a fluorescent glucocorticoid ligand, was diluted with GR screening buffer, whereby a 4 nM solution was prepared.
4×GR solution: Recombinant human GR was diluted with GR screening buffer, whereby a 16 nM solution was prepared.
(Preparation of Test Compound Solution)
After a test compound was dissolved in dimethylsulfoxide, the resulting solution was diluted with GR screening buffer, whereby a 20 μM test compound solution was prepared.
(Test Method and Measurement Method)
1) The test compound solution was added in an amount of 10 μL into each well of a 384-well plate, and then, 4×GS1 solution and 4×GR solution were added in an amount of 5 μL into each well, respectively.
2) The plate was incubated in a dark place at room temperature for 2 to 4 hours.
3) By using a multimode plate reader, Analyst™ HT (manufactured by LJL Biosystems), fluorescence polarization of each well was measured. As the blank, a well containing GR screening buffer in place of the test compound and 4×GS1 solution was used.
4) The same procedure as that in the above 1) to 3) was carried out except that GR screening buffer was used in place of the test compound solution, and the obtained result was taken as the negative control.
5) The same procedure as that in the above 1) to 3) was carried out except that 2 mM dexamethasone was used in place of the test compound solution, and the obtained result was taken as the positive control.
(Calculation Equation of GR Binding Ratio)
A GR binding ratio (%) was calculated from the following equation. GR binding ratio(%)=100×[1−(fluorescence polarization of test compound solution−fluorescence polarization of positive control solution)/(fluorescence polarization of negative control solution−fluorescence polarization of positive control solution)] (Test Results and Discussion)
Background: Polarisation of emitted light reports the rotation of a fluorescent probe.
What is called inhibition is the relative decrease from the control value, in per cent. As for `COc1cc(OC(=O)c2cccnc2C)ccc1-c1ccc2c(c1CNc1cc(F)ccc1C)C(C)=CC(C)(C)N2` [Compound 1-38, 5-(5-Fluoro-2-methylphenylaminomethyl)-6-[2-methoxy-4-(2-methylpyridin-3-ylcarbonyloxy)phenyl]-2,2,4-trimethyl-1,2-dihydroquinoline], the inhibition at 20 µM (stock) stood at 100%. As for `COc1cc(OC(=O)c2ccccc2SC)ccc1-c1ccc2c(c1CNc1cc(F)ccc1C)C(C)=CC(C)(C)N2` [Compound 1-39, 5-(5-Fluoro-2-methylphenylaminomethyl)-6-[4-(2-methylthiobenzoyloxy)-2-methoxyphenyl]-2,2,4-trimethyl-1,2-dihydroquinoline], the inhibition at 20 µM (stock) is 100%. Consider `COc1ccccc1NCc1c(-c2ccc(OC(=O)c3cccnc3C)cc2OC)ccc2c1C(C)=CC(C)(C)N2` [Compound 1-2, 6-[2-Methoxy-4-(2-methylpyridin-3-ylcarbonyloxy)phenyl]-5-(2-methoxyphenylaminomethyl)-2,2,4-trimethyl-1,2-dihydroquioline], for which the inhibition at 20 µM (stock) was 100%. For `COc1ccccc1NCc1c(-c2ccc(OS(=O)(=O)C3CCCC3)cc2OC)ccc2c1C(C)=CC(C)(C)N2` [Compound 2-10, 6-(4-Cyclopentylsulfonyloxy-2-methoxyphenyl)-5-(2-methoxyphenylaminomethyl)-2,2,4-trimethyl-1,2-dihydroquioline], the inhibition at 20 µM (stock) was 100%.

With `COc1cc(OC(=O)c2ccccc2Cl)ccc1-c1ccc2c(c1CNc1cc(F)ccc1C)C(C)=CC(C)(C)N2` [Compound 1-9, 6-[4-(2-Chlorobenzoyloxy)-2-methoxyphenyl]-5-(5-fluoro-2-methylphenylaminomethyl)-2,2,4-trimethyl-1,2-dihydroquinoline], the inhibition at 20 µM (stock) was 90%.

Consider `COc1ccccc1NCc1c(-c2ccc(OC(=O)N3CCOCC3)cc2OC)ccc2c1C(C)=CC(C)(C)N2` [Compound 1-44, 6-[2-Methoxy-4-(morpholin-4-ylcarbonyloxy)phenyl]-5-(2-methoxyphenylaminomethyl)-2,2,4-trimethyl-1,2-dihydroquinoline], for which the inhibition at 20 µM (stock) stood at 96%. Still for that read-out and setting: the same measure for `COc1ccccc1NCc1c(-c2ccc(OS(=O)(=O)C3CC3)cc2OC)ccc2c1C(C)=CC(C)(C)N2` [Compound 2-7, 6-(4-Cyclopropylsulfonyloxy-2-methoxyphenyl)-5-(2-methoxyphenylaminomethyl)-2,2,4-trimethyl-1,2-dihydroquioline]: 100%.

`COc1ccccc1NCc1c(-c2ccc(OC(=O)c3ccncc3)cc2OC)ccc2c1C(C)=CC(C)(C)N2` [Compound 1-13, 5-(2-Methoxyphenylaminomethyl)-6-[2-methoxy-4-(pyridin-4-ylcarbonyloxy)phenyl]-2,2,4-trimethyl-1,2-dihydroquinoline]: the inhibition at 20 µM (stock) came out at 100%. Regarding `COc1ccccc1NCc1c(-c2ccc(OC(=O)c3ccc(C)nc3)cc2OC)ccc2c1C(C)=CC(C)(C)N2` [Compound 1-31, 6-[2-Methoxy-4-(6-methylpyridin-3-ylcarbonyloxy)phenyl]-5-(2-methoxyphenylaminomethyl)-2,2,4-trimethyl-1,2-dihydroquinoline], the inhibition at 20 µM (stock) came to 92%. For `COc1ccccc1NCc1c(-c2ccc(OC(=O)c3ccco3)cc2OC)ccc2c1C(C)=CC(C)(C)N2` [Compound 1-1, 6-[4-(Furan-2-ylcarbonyloxy)-2-methoxyphenyl]-5-(2-methoxyphenylaminomethyl)-2,2,4-trimethyl-1,2-dihydroquioline], the inhibition at 20 µM (stock) was determined as 92%. As to `COc1cc(OC(=O)c2occc2C)ccc1-c1ccc2c(c1CNc1cc(F)ccc1C)C(C)=CC(C)(C)N2` [Compound 1-42, 5-(5-Fluoro-2-methylphenylaminomethyl)-6-[2-methoxy-4-(3-methylfuran-2-ylcarbonyloxy)phenyl]-2,2,4-trimethyl-1,2-dihydroquinoline], the inhibition at 20 µM (stock) was 100%. With `COc1ccccc1NCc1c(-c2ccc(OC(=O)c3sccc3Cl)cc2OC)ccc2c1C(C)=CC(C)(C)N2` [Compound 1-28, 6-[4-(3-Chlorothiophen-2-ylcarbonyloxy)-2-methoxyphenyl]-5-(2-methoxyphenylaminomethyl)-2,2,4-trimethyl-1,2-dihydroquinoline], the inhibition at 20 µM (stock) is 88%. With `COc1ccccc1NCc1c(-c2ccc(OC(=O)c3ccccc3OC)cc2OC)ccc2c1C(C)=CC(C)(C)N2` [Compound 1-4, 6-[2-Methoxy-4-(2-methoxybenzoyloxy)phenyl]-5-(2-methoxyphenylaminomethyl)-2,2,4-trimethyl-1,2-dihydroquinoline], the inhibition at 20 µM (stock) turned out to be 95%. For `COc1ccccc1NCc1c(-c2ccc(OC(=O)c3ccsc3)cc2OC)ccc2c1C(C)=CC(C)(C)N2` [Compound 1-7, 5-(2-Methoxyphenylaminomethyl)-6-[2-methoxy-4-(thiophen-3-ylcarbonyloxy)phenyl]-2,2,4-trimethyl-1,2-dihydroquinoline], the inhibition at 20 µM (stock) stood at 95%. On to `COc1ccccc1NCc1c(-c2ccc(OC(=O)Nc3cccnc3)cc2OC)ccc2c1C(C)=CC(C)(C)N2` [Compound 4-3, 5-(2-Methoxyphenylaminomethyl)-6-[2-methoxy-4-(pyridin-3-ylaminocarbonyloxy)phenyl]-2,2,4-trimethyl-1,2-dihydroquioline], for which the inhibition at 20 µM was found to be 91%.

As for `CCCS(=O)(=O)Oc1ccc(-c2ccc3c(c2CNc2cc(F)ccc2C)C(C)=CC(C)(C)N3)c(OC)c1` [Compound 2-6, 5-(5-Fluoro-2-methylphenylaminomethyl)-6-(2-methoxy-4-propylsulfonyloxyphenyl)-2,2,4-trimethyl-1,2-dihydroquioline], the inhibition at 20 µM (stock) is 100%. Turning to `COc1ccccc1NCc1c(-c2ccc(OC(=O)c3ccccc3C)cc2OC)ccc2c1C(C)=CC(C)(C)N2` [Compound 1-5, 6-[2-Methoxy-4-(2-methylbenzoyloxy)phenyl]-5-(2-methoxyphenylaminomethyl)-2,2,4-trimethyl-1,2-dihydroquinoline], the inhibition at 20 µM (stock) turned out to be 93%.

Consider `COc1ccccc1NCc1c(-c2ccc(OC(=O)c3ccoc3)cc2OC)ccc2c1C(C)=CC(C)(C)N2` [Compound 1-6, 6-[4-(Furan-3-ylcarbonyloxy)-2-methoxyphenyl]-5-(2-methoxyphenylaminomethyl)-2,2,4-trimethyl-1,2-dihydroquinoline], for which the inhibition at 20 µM (stock) came out at 97%. As for `COc1ccccc1NCc1c(-c2ccc(OS(=O)(=O)C(C)C)cc2OC)ccc2c1C(C)=CC(C)(C)N2` [Compound 2-2, 6-(4-Isopropylsulfonyloxy-2-methoxyphenyl)-5-(2-methoxyphenylaminomethyl)-2,2,4-trimethyl-1,2-dihydroquioline], the inhibition at 20 µM (stock) came to 100%.

As for `COc1ccc(C(=O)Oc2ccc(-c3ccc4c(c3CNc3ccccc3OC)C(C)=CC(C)(C)N4)c(OC)c2)cc1` [Compound 1-22, 6-[2-Methoxy-4-(4-methoxybenzoyloxy)phenyl]-5-(2-methoxyphenylaminomethyl)-2,2,4-trimethyl-1,2-dihydroquinoline], the inhibition at 20 µM (stock) amounted to 81%.
